In the assay the test system is Plasmodium berghei. The assay is described as follows: Luciferase/luciferin-expressing antifolate-resistant parasites were used to infect a culture of HepG2 cells that were pre-incubated with compounds. Infected hepatocytes emit light due to the luciferase reaction. Assay results are presented as the percent inhibition of light emission compared to control. […]. The format is functional. The note with it: sporozoite; for IC90: read-out: LUCIFERASE INFECTION ASSAY - IC90.

Where [1] appears, read: read-out: LUCIFERASE INFECTION ASSAY - IC50.

Consider 36 compounds from ChEMBL document CHEMBL4483862, “Open-source discovery of chemical leads for next-generation chemoprotective antimalarials” (2018).

One may read the IC50 as the concentration at which inhibition is half-maximal. What is called IC90 is the concentration at which the effect reaches the 90% level. For `O=C(Nc1cccc(C(F)(F)F)c1)n1ncc(Sc2ccc(Cl)cc2)c1-c1ccc(Cl)cc1`, the IC90 was determined as 4.72 µM. Under “HEPG2TOX_HILL_SLOPE 15.8, HEPG2TOX_R_SQUARED 0.635, PBLUC_HILL_SLOPE 5.24, PBLUC_R_SQUARED 0.621, read-out: LUCIFERASE INFECTION ASSAY - IC50”, the IC50 came to 3.11 µM.

For the compound `O=C(/C(=N/Nc1ccc(Cl)cc1Cl)C(=O)C(F)(F)F)c1cccs1`, the IC90 came out at 5.87 µM. Also, the IC50 (FFLUC_HILL_SLOPE 16.5, FFLUC_R_SQUARED 0.242, PBLUC_HILL_SLOPE 1.77, PBLUC_R_SQUARED 0.602, read-out: LUCIFERASE INFECTION ASSAY - IC50) was 1.7 µM.

In the case of `Cc1ccc(NC(=O)NC(=O)CSc2nccn2Cc2ccccc2)c(C)c1`, the IC90 was more than 10 µM. In addition, the IC50 (FFLUC_HILL_SLOPE 2.79, FFLUC_R_SQUARED 0.544, read-out: LUCIFERASE INFECTION ASSAY - IC50) is more than 10 µM.

For the compound `Clc1cc(Cl)cc(NCc2ccc3c(c2)OCO3)c1`, the IC90 was more than 11.1 µM. The IC50 under setting [1] is more than 11.1 µM.

Turning to `Clc1ccc(-c2cnc3cnc(-c4ccsc4)cn23)cc1`, the IC90 amounted to 8.06 µM. The IC50 under setting [1] was determined as 2.46 µM.

As to `CS(=O)(=O)N1CCc2cc(C(=O)CSc3nc(-c4cccs4)nc4ccccc34)ccc21`, the IC90 was more than 10 µM. Besides, the IC50 under setting [1] is more than 10 µM.

In the case of `c1csc(-c2cnc3ccc(-c4ccc5c(c4)OCO5)nn23)c1`, the IC90 is more than 10 µM. The IC50 (HEPG2TOX_HILL_SLOPE 2.2, HEPG2TOX_R_SQUARED 0.859, PBLUC_HILL_SLOPE 2.18, PBLUC_R_SQUARED 0.249, read-out: LUCIFERASE INFECTION ASSAY - IC50) stood at 4.56 µM.

As for `CC(C(=O)Nc1cccnc1)c1ccc2c(c1)[nH]c1ccc(Cl)cc12` (configuration not stated), the IC90 was more than 9.43 µM. Moreover, the IC50 (HEPG2TOX_HILL_SLOPE 3.6, HEPG2TOX_R_SQUARED 0.842, PBLUC_HILL_SLOPE 14.2, PBLUC_R_SQUARED 0.432, read-out: LUCIFERASE INFECTION ASSAY - IC50) stood at 8.79 µM.

Regarding `OCCNCCNCc1c(OCc2ccccc2Cl)ccc2ccccc12`, the IC90 is more than 8.57 µM. The IC50 (PBLUC_HILL_SLOPE 12.5, PBLUC_R_SQUARED 0.654, read-out: LUCIFERASE INFECTION ASSAY - IC50) stood at 7.4 µM.

In the case of `O=C(c1cc(-c2ccccc2)n[nH]1)N1CCN(c2ccccc2F)CC1`, the IC90 was more than 10 µM. Also, the IC50 under setting [1] was more than 10 µM.

With `O=C1C=CC(=O)N1c1ccc(C2CCCCC2)cc1`, the IC90 turned out to be 11.3 µM. Besides, the IC50 (HEPG2TOX_HILL_SLOPE 18, HEPG2TOX_R_SQUARED 0.917, PBLUC_HILL_SLOPE 2, PBLUC_R_SQUARED 0.694, read-out: LUCIFERASE INFECTION ASSAY - IC50) is 3.78 µM.

As for `CN(C)CCNC(=O)c1cccc(-c2cnc3ccc(-c4cccc(NS(C)(=O)=O)c4)nn23)c1`, the IC90 came out at 1.3 µM. Also, under “HEPG2TOX_HILL_SLOPE 1.31, HEPG2TOX_R_SQUARED 0.978, PBLUC_HILL_SLOPE 2.06, PBLUC_R_SQUARED 0.888, read-out: LUCIFERASE INFECTION ASSAY - IC50”, the IC50 is 0.447 µM.

On to `COc1ccc(N(CCC(N)=O)C(=O)CSc2nc3ccccc3n2-c2ccc(OC)cc2)cc1`, for which the IC90 was more than 10 µM. Moreover, the IC50 (FFLUC_HILL_SLOPE 0.23, FFLUC_R_SQUARED 0.0771, read-out: LUCIFERASE INFECTION ASSAY - IC50) is more than 10 µM.

In the case of `Cc1ccc(-c2nc(C)sc2CC(=O)NC2CCN(C3CC3)C2)cc1` (configuration not stated), the IC90 is more than 10 µM. Also, the IC50 under setting [1] is more than 10 µM.

Consider `Clc1ccc(-n2nnnc2Sc2ncnc3sc4c(c23)CCC4)cc1`, for which the IC90 is more than 10 µM. Also, the IC50 (FFLUC_HILL_SLOPE 0.273, FFLUC_R_SQUARED 0.315, read-out: LUCIFERASE INFECTION ASSAY - IC50) is more than 10 µM.

`CC(=O)c1cccc(-c2cnc3cnc(-c4cccnc4)cn23)c1`: the IC90 is more than 10.5 µM. Besides, the IC50 (PBLUC_HILL_SLOPE 3.62, PBLUC_R_SQUARED 0.754, read-out: LUCIFERASE INFECTION ASSAY - IC50) was found to be 6.77 µM.

In the case of `CN1CCN(c2ccc(-c3cn4c(-c5cccc(Cl)c5)cnc4cn3)cn2)CC1`, the IC90 was more than 8.15 µM. Besides, under “PBLUC_HILL_SLOPE 1.98, PBLUC_R_SQUARED 0.725, read-out: LUCIFERASE INFECTION ASSAY - IC50”, the IC50 is 5.39 µM.

As to `O=C(O)CNC(=O)/C=C/c1ccccc1` [CINNAMOYLGLYCINE], the IC90 is more than 10 µM. For the same compound, the IC50 under setting [1] is more than 10 µM.

For the compound `N#C/C(C(=O)c1ccc([N+](=O)[O-])s1)=C1\Nc2ccccc2S1`, the IC90 was more than 10 µM. Besides, under “HEPG2TOX_HILL_SLOPE 0.276, HEPG2TOX_R_SQUARED 0.471, PBLUC_HILL_SLOPE 0.885, PBLUC_R_SQUARED 0.549, read-out: LUCIFERASE INFECTION ASSAY - IC50”, the IC50 is 0.951 µM.

As for `CCCCNC(=O)c1c(NC(=O)c2ccc(Cl)cc2)nc2ccccn12`, the IC90 is 3 µM. Under “FFLUC_HILL_SLOPE 14.7, FFLUC_R_SQUARED 0.115, HEPG2TOX_HILL_SLOPE 1.94, HEPG2TOX_R_SQUARED 0.747, PBLUC_HILL_SLOPE 14.3, PBLUC_R_SQUARED 0.4, read-out: LUCIFERASE INFECTION ASSAY - IC50”, the IC50 was determined as 2.58 µM.

Take `CC(C)c1ccc(NC(=O)Nc2ccc3nc(-c4ccccn4)nn3c2)cc1`: the IC90 stood at 4.2 µM. The IC50 (HEPG2TOX_HILL_SLOPE 13, HEPG2TOX_R_SQUARED 0.696, PBLUC_HILL_SLOPE 14.3, PBLUC_R_SQUARED 0.36, read-out: LUCIFERASE INFECTION ASSAY - IC50) was 3.6 µM.

On to `COc1ccc(C(=O)Nc2ccc3nc(-c4ccccc4OC)nn3c2)cc1OC`, for which the IC90 was more than 10 µM. Further, the half-inhibitory concentration (IC50) under setting [1] was more than 10 µM.

Take `O=C1Nc2ccc([N+](=O)[O-])cc2C1=C(c1nc2ccccc2s1)c1nc2ccccc2s1`: the IC90 was more than 10 µM. Besides, the IC50 (FFLUC_HILL_SLOPE 9.66, FFLUC_R_SQUARED 0.665, read-out: LUCIFERASE INFECTION ASSAY - IC50) is more than 10 µM.

With `Cc1cc(NC(=O)N2CCN(Cc3cccc4ccccc34)CC2)no1`, the IC90 was more than 10 µM. The IC50 (PBLUC_HILL_SLOPE 2.02, PBLUC_R_SQUARED 0.015, read-out: LUCIFERASE INFECTION ASSAY - IC50) was more than 10 µM.

Consider `O=C(NNC(=S)Nc1cc(C(F)(F)F)cc(C(F)(F)F)c1)c1cccnc1Oc1ccccc1`, for which the IC90 is more than 6.59 µM. Besides, under setting [1], the IC50 was more than 6.59 µM.

Take `NC(CCc1ccccc1)c1csc(NC(=O)Nc2ccccc2-c2ccccc2)n1` (configuration not stated): the IC90 came to 7.05 µM. In addition, the IC50 (PBLUC_HILL_SLOPE 12.2, PBLUC_R_SQUARED 0.388, read-out: LUCIFERASE INFECTION ASSAY - IC50) amounted to 5.88 µM.

With `COc1ccc(Nc2nccc3c2cc(-c2cccc(OC)c2)n3C)cc1`, the IC90 stood at 8.15 µM. In addition, for the setting “PBLUC_HILL_SLOPE 2.81, PBLUC_R_SQUARED 0.348, read-out: LUCIFERASE INFECTION ASSAY - IC50”, the IC50 came to 3.73 µM.

As for `CCCCNC(=O)c1c(NC(=O)c2ccc(Cl)cc2Cl)nc2ccc(C)cn12`, the IC90 is 1.73 µM. Besides, the IC50 (FFLUC_HILL_SLOPE 0.85, FFLUC_R_SQUARED 0.0513, HEPG2TOX_HILL_SLOPE 0.9, HEPG2TOX_R_SQUARED 0.94, PBLUC_HILL_SLOPE 2.97, PBLUC_R_SQUARED 0.791, read-out: LUCIFERASE INFECTION ASSAY - IC50) stood at 0.826 µM.

With `CC(=O)Nc1ccc(S(=O)(=O)Oc2ccc(C)cc2[N+](=O)[O-])cc1`, the IC90 was more than 9.42 µM. Also, the IC50 under setting [1] was more than 9.42 µM.

With `Cc1ccc2c(CC(=O)Nc3sccc3C(N)=O)coc2c1`, the IC90 was more than 10 µM. Under setting [1], the IC50 is more than 10 µM.

For the compound `C#CCOc1ccccc1/C=C(\C#N)c1nc(N)nc(Nc2ccccc2)n1`, the IC90 was more than 10 µM. For the same compound, the IC50 (FFLUC_HILL_SLOPE 15.9, FFLUC_R_SQUARED 0.0727, HEPG2TOX_HILL_SLOPE 1.54, HEPG2TOX_R_SQUARED 0.555, PBLUC_HILL_SLOPE 1.18, PBLUC_R_SQUARED 0.297, read-out: LUCIFERASE INFECTION ASSAY - IC50) was more than 10 µM.

With `CC(=O)c1ccc(NC(=O)Nc2ccc3nc(-c4cccc(F)c4)nn3c2)cc1`, the concentration for an effect of 90% (IC90) is more than 10 µM. Under setting [1], the IC50 stood at 5.52 µM.

Turning to `COc1ccc(/C=C2\CSc3ccc(Cl)cc3C2=O)cc1`, the IC90 turned out to be 5.42 µM. For the same compound, the IC50 (HEPG2TOX_HILL_SLOPE 3.81, HEPG2TOX_R_SQUARED 0.977, PBLUC_HILL_SLOPE 10.6, PBLUC_R_SQUARED 0.089, read-out: LUCIFERASE INFECTION ASSAY - IC50) turned out to be 4.41 µM.

As for `OCc1ccc(-c2cn3c(-c4ccc5ncccc5c4)cnc3cn2)cc1`, the IC90 came out at 3.45 µM. Besides, the IC50 (HEPG2TOX_HILL_SLOPE 2.22, HEPG2TOX_R_SQUARED 0.955, PBLUC_HILL_SLOPE 5.03, PBLUC_R_SQUARED 0.612, read-out: LUCIFERASE INFECTION ASSAY - IC50) turned out to be 2.23 µM.

As for `CN(Cc1ccc(C(N)=O)cc1)c1ncnc2ccccc12`, the IC90 was 1.53 µM. The IC50 (HEPG2TOX_HILL_SLOPE 2.36, HEPG2TOX_R_SQUARED 0.863, PBLUC_HILL_SLOPE 14.7, PBLUC_R_SQUARED 0.585, read-out: LUCIFERASE INFECTION ASSAY - IC50) came to 1.32 µM.

For the compound `C/C(=N\NC(=O)c1ccc(Cl)cc1)c1ccccc1O`, the IC90 is 4.32 µM. In addition, for the setting “HEPG2TOX_HILL_SLOPE 1.4, HEPG2TOX_R_SQUARED 0.87, PBLUC_HILL_SLOPE 14.3, PBLUC_R_SQUARED 0.668, read-out: LUCIFERASE INFECTION ASSAY - IC50”, the IC50 worked out at 3.7 µM.
